pIC50: −log10 of the molar value.
System: 677734-321-R-J1-PDC complex spheroid viability
Test: Anticancer human tumor 677734-321-R-J1-PDC patient-derived soft tissue sarcoma cell line growth inhibition [POLQ]
Conditions: for pIC50: curve of first compound; for viability, T/C: stronger effect = lower value
Description: Multicellular complex tumor spheroid response to Polymerase (POL) inhibitors (novobiocin, ART-558, RP6685) in combination with a variety of drugs and investigational agents in selected tumor cell lines
The POL inhibitors (novobiocin, ART-558, and RP6685) were evaluated both individually and in combination with standard of care and investigational anticancer small molecules within a complex spheroid model of solid tumors. . Complex spheroids include a stromal component modeled by human endothelial cells (HUVEC) and fibroblasts modeled by human mesenchymal stem cells (MSCs). The concentration ranges selected for each drug and investigational agent were based upon clinically achievable concentrations if the clinical Cmax of the agent was known.
Compounds. The drugs and investigational agents: novobiocin (NSC847541), ART-558 (NSC835418), RP-6685 (NSC848927), peposertib (NSC802822), ceralasertib (NSC780249), elimusertib (NSC800525), camonsertib (NSC841442), AZD-1390 (NSC803789), olaparib (NSC753686), talazoparib (NSC767125), rucaparib (NSC756644), sotorasib (NSC818433), MRTX-1133 (NSC836407), SN-38 (NSC673596), topotecan (NSC609699), epotoside (NSC141540), doxorubicin (NSC123127), gemcitabine (NSC613327), 5-fluorouracil (NSC19893), paclitaxel (NSC125973), vemurafenib (NSC761431), MSA-2 (NSC828583), SN-011 (NSC837082), adavosertib (NSC754352), prexasertib (NSC758257), carboplatin (NSC241240) and oxaliplatin (NSC266046), were obtained from the National Cancer Institute (NCI) Developmental Therapeutics Program Chemical Repository (21). The FDA-approved anticancer drug set is available from the Developmental Therapeutics Program at https://dtp.cancer.gov/organization/dscb/obtaining/. […] The stock solutions were prepared in dimethyl sulfoxide (DMSO, Sigma-Aldrich, St. Louis, MO, cat. D2650), except for the platinum compounds which were prepared in saline (Quality Biological, Gaithersburg, MD, cat. 114-055-101), at 800-fold the tested concentration and stored at -70 degrees C prior to their use. All drugs and investigational agents were tested over a range starting from a high concentration at or near the clinical Cmax and decreasing in half-log increments. If the clinical Cmax for an agent had not been determined, the highest concentration tested was 10 microM, except for SN-38, which was tested at a high concentration of 1 microM.
Cell Culture. All cells were maintained in an incubator at 37 degrees C and 5% CO2 with 95% humidity. The PDC lines were cultured according to standard operating procedures established by the NCI PDMR (https://pdmr.cancer.gov). Table 3 of the manuscript, lists the cell lines along with the number of the three cell types plated to form the mct-spheroids and media for tumor cell growth. After thawing, all PDC lines, except 997537-175-T-J1-PDC and 415267-285-R-J2-PDC, were cultured in Matrigel-coated flasks prepared with a working solution of 1X Ham's F-12 nutrient mix, without supplementation (Thermo Fisher Scientific, cat. 11765054), 100 U/mL penicillin-streptomycin (Thermo Fisher Scientific, cat. 15140122), and 2.5% Matrigel (Corning Inc., Corning, NY, cat. 354248) for the first three passages. The two PDC lines 997537-175-T-J1-PDC and 415267-285-R-J2-PDC were cultured on uncoated flasks. The 857933-349-R-J2-PDC line was cultured in 6C/Colon 1B media containing advanced DMEM/F-12 (Thermo Fisher Scientific, cat. 12634028), 10 mM HEPES (Thermo Fisher Scientific, cat. 15630080), 1X GlutaMAX supplement (Thermo Fisher Scientific, cat. 35050061), 0.1 mg/mL primocin (InvivoGen, San Diego, CA, cat. ant-pm-2), 10% defined fetal bovine serum, heat inactivated (HyClone Laboratories Inc., Logan, UT, cat. SH30070.03HI), 50% L-WRN conditioned media (ATCC, cat. CRL-3276), 1.25 mM N-Acetyl-L-cysteine (Sigma-Aldrich, cat. A9165), 10 mM nicotinamide (Sigma-Aldrich, cat. N0636), 1X B-27 supplement (Thermo Fisher Scientific, cat. 17504044), 1X N-2 supplement (Thermo Fisher Scientific, cat. […]
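Also: spheroids exposed to compounds for one week.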
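For viability, T/C in this document: 100% = vehicle DMSO treated spheroids.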

CC(=O)O[C@H]1C(=O)[C@@]2(C)[C@H]([C@H](OC(=O)c3ccccc3)[C@]3(O)C[C@H](OC(=O)[C@H](O)[C@@H](NC(=O)c4ccccc4)c4ccccc4)C(C)=C1C3(C)C)[C@]1(OC(C)=O)CO[C@@H]1C[C@@H]2O + COC1C(OC(N)=O)C(O)C(Oc2ccc3c(O)c(NC(=O)c4ccc(O)c(CC=C(C)C)c4)c(=O)oc3c2C)OC1(C)C
pIC50 (second compound 0.0316 µM): > 8.02
pIC50 (second compound 0.1 µM): > 8.02
pIC50 (second compound 0.316 µM): > 8.02
pIC50 (second compound 1 µM): > 8.02
pIC50 (second compound 3.16 µM): > 8.02
pIC50 (second compound 10 µM): > 8.02
viability, T/C (second compound 0.0316 µM, first compound 0.00949 µM): 44.6%
viability, T/C (second compound 0.0316 µM, first compound 0.03 µM): 22.1%
viability, T/C (second compound 0.0316 µM, first compound 0.0949 µM): 16.2%
viability, T/C (second compound 0.0316 µM, first compound 0.3 µM): 16.4%
viability, T/C (second compound 0.0316 µM, first compound 0.949 µM): 13.5%
viability, T/C (second compound 0.0316 µM, first compound 3 µM): 19.1%
viability, T/C (second compound 0.1 µM, first compound 0.00949 µM): 41.2%
viability, T/C (second compound 0.1 µM, first compound 0.03 µM): 23.5%
viability, T/C (second compound 0.1 µM, first compound 0.0949 µM): 20.2%
viability, T/C (second compound 0.1 µM, first compound 0.3 µM): 14.9%
viability, T/C (second compound 0.1 µM, first compound 0.949 µM): 13.6%
viability, T/C (second compound 0.1 µM, first compound 3 µM): 17.5%
viability, T/C (second compound 0.316 µM, first compound 0.00949 µM): 36.8%
viability, T/C (second compound 0.316 µM, first compound 0.03 µM): 21.3%
viability, T/C (second compound 0.316 µM, first compound 0.0949 µM): 16.8%
viability, T/C (second compound 0.316 µM, first compound 0.3 µM): 11.9%
viability, T/C (second compound 0.316 µM, first compound 0.949 µM): 13.9%
viability, T/C (second compound 0.316 µM, first compound 3 µM): 16.9%
viability, T/C (second compound 1 µM, first compound 0.00949 µM): 37.8%
viability, T/C (second compound 1 µM, first compound 0.03 µM): 22.4%
viability, T/C (second compound 1 µM, first compound 0.0949 µM): 17.8%
viability, T/C (second compound 1 µM, first compound 0.3 µM): 15.2%
viability, T/C (second compound 1 µM, first compound 0.949 µM): 14%
viability, T/C (second compound 1 µM, first compound 3 µM): 18%
viability, T/C (second compound 3.16 µM, first compound 0.00949 µM): 37.8%
viability, T/C (second compound 3.16 µM, first compound 0.03 µM): 21.1%
viability, T/C (second compound 3.16 µM, first compound 0.0949 µM): 16.2%
viability, T/C (second compound 3.16 µM, first compound 0.3 µM): 15.4%
viability, T/C (second compound 3.16 µM, first compound 0.949 µM): 13.5%
viability, T/C (second compound 3.16 µM, first compound 3 µM): 17.7%
viability, T/C (second compound 10 µM, first compound 0.00949 µM): 45.5%
viability, T/C (second compound 10 µM, first compound 0.03 µM): 23.1%
viability, T/C (second compound 10 µM, first compound 0.0949 µM): 16.2%
viability, T/C (second compound 10 µM, first compound 0.3 µM): 13.2%
viability, T/C (second compound 10 µM, first compound 0.949 µM): 14.3%
viability, T/C (second compound 10 µM, first compound 3 µM): 16.5%

COc1cc(C2c3cc4c(cc3C(OC3OC5COC(C)OC5C(O)C3O)C3COC(=O)C23)OCO4)cc(OC)c1O (centres undefined) + COC1C(OC(N)=O)C(O)C(Oc2ccc3c(O)c(NC(=O)c4ccc(O)c(CC=C(C)C)c4)c(=O)oc3c2C)OC1(C)C
pIC50 (second compound 0.0316 µM): 6.15
pIC50 (second compound 0.1 µM): 6.14
pIC50 (second compound 0.316 µM): 6.03
pIC50 (second compound 1 µM): 6.18
pIC50 (second compound 3.16 µM): 6.07
pIC50 (second compound 10 µM): 6.15
viability, T/C (second compound 0.0316 µM, first compound 0.0316 µM): 107%
viability, T/C (second compound 0.0316 µM, first compound 0.1 µM): 91.5%
viability, T/C (second compound 0.0316 µM, first compound 0.316 µM): 59.5%
viability, T/C (second compound 0.0316 µM, first compound 1 µM): 47.8%
viability, T/C (second compound 0.0316 µM, first compound 3.16 µM): 23.8%
viability, T/C (second compound 0.0316 µM, first compound 10 µM): 11.1%
viability, T/C (second compound 0.1 µM, first compound 0.0316 µM): 105%
viability, T/C (second compound 0.1 µM, first compound 0.1 µM): 94.7%
viability, T/C (second compound 0.1 µM, first compound 0.316 µM): 55%
viability, T/C (second compound 0.1 µM, first compound 1 µM): 47.2%
viability, T/C (second compound 0.1 µM, first compound 3.16 µM): 30.2%
viability, T/C (second compound 0.1 µM, first compound 10 µM): 10.7%
viability, T/C (second compound 0.316 µM, first compound 0.0316 µM): 100%
viability, T/C (second compound 0.316 µM, first compound 0.1 µM): 93.8%
viability, T/C (second compound 0.316 µM, first compound 0.316 µM): 70.8%
viability, T/C (second compound 0.316 µM, first compound 1 µM): 51.3%
viability, T/C (second compound 0.316 µM, first compound 3.16 µM): 23.9%
viability, T/C (second compound 0.316 µM, first compound 10 µM): 12%
viability, T/C (second compound 1 µM, first compound 0.0316 µM): 111%
viability, T/C (second compound 1 µM, first compound 0.1 µM): 87.2%
viability, T/C (second compound 1 µM, first compound 0.316 µM): 60.4%
viability, T/C (second compound 1 µM, first compound 1 µM): 45.3%
viability, T/C (second compound 1 µM, first compound 3.16 µM): 24.3%
viability, T/C (second compound 1 µM, first compound 10 µM): 9.55%
viability, T/C (second compound 3.16 µM, first compound 0.0316 µM): 111%
viability, T/C (second compound 3.16 µM, first compound 0.1 µM): 93.6%
viability, T/C (second compound 3.16 µM, first compound 0.316 µM): 62.6%
viability, T/C (second compound 3.16 µM, first compound 1 µM): 54.9%
viability, T/C (second compound 3.16 µM, first compound 3.16 µM): 20.4%
viability, T/C (second compound 3.16 µM, first compound 10 µM): 9%
viability, T/C (second compound 10 µM, first compound 0.0316 µM): 110%
viability, T/C (second compound 10 µM, first compound 0.1 µM): 98.2%
viability, T/C (second compound 10 µM, first compound 0.316 µM): 58.2%
viability, T/C (second compound 10 µM, first compound 1 µM): 47.6%
viability, T/C (second compound 10 µM, first compound 3.16 µM): 23.7%
viability, T/C (second compound 10 µM, first compound 10 µM): 11%
